Here are results for one compound from ChEMBL document CHEMBL3774361, “Synthesis and evaluation of thieno[2,3-d]pyrimidin-4(3H)-ones as potential antitubercular agents” (Medchemcomm, 2015).

Series [1] can be described thus: Selectivity index, ratio of GI50 for human THP1 cells to MIC90 for active stage of Mycobacterium bovis BCG ATCC 35743. It is filed as toxicity, cell-based, THP-1. To be noted: read-out: Selectivity Index.
Series [2] in a line: Selectivity index, ratio of GI50 for human THP1 cells to MIC90 for active stage of Mycobacterium tuberculosis H37Ra. It counts as toxicity, cell-based, THP-1. The settings on record: read-out: Selectivity Index.
Series [3] can be described thus: Selectivity index, ratio of GI50 for human HCT116 cells to MIC90 for active stage of Mycobacterium bovis BCG ATCC 35743. It counts as toxicity, cell-based, HCT-116. To be noted: read-out: Selectivity Index.
Series [4] is described as follows: Selectivity index, ratio of GI50 for human HCT116 cells to MIC90 for active stage of Mycobacterium tuberculosis H37Ra. It is filed as toxicity, cell-based, HCT-116. To be noted: read-out: Selectivity Index.
The nature of series [5]: Selectivity index, ratio of GI50 for human A549 cells to MIC90 for active stage of Mycobacterium bovis BCG ATCC 35743. It counts as toxicity, cell-based. To be noted: read-out: Selectivity Index.
A short description of series [6]: Selectivity index, ratio of GI50 for human A549 cells to MIC90 for active stage of Mycobacterium tuberculosis H37Ra. It is filed as toxicity, cell-based. To be noted: read-out: Selectivity Index.
Series [7] is described as follows: Selectivity index, ratio of GI50 for human MCF7 cells to MIC90 for active stage of Mycobacterium bovis BCG ATCC 35743. To be noted: read-out: Selectivity Index. It is filed as toxicity, cell-based.
The nature of series [8]: Selectivity index, ratio of GI50 for human MCF7 cells to MIC90 for active stage of Mycobacterium tuberculosis H37Ra. It counts as toxicity, cell-based. The settings on record: read-out: Selectivity Index.
Series [9] is described as follows: Cytotoxicity against human THP1 cells incubated for 1 to 11 days by MTT assay. It counts as cell-based, THP-1.
A short description of series [10]: Cytotoxicity against human HCT116 cells incubated for 1 to 11 days by MTT assay. It counts as cell-based, HCT-116.
For series [11], the system named is Mycobacterium tuberculosis. As to the kind of experiment: Antitubercular activity against active stage of Mycobacterium tuberculosis H37Ra assessed as cell viability after 8 days by XTT reduction menadione assay. It counts as functional. The settings on record: 192 h.
The subject of series [12] is Mycobacterium tuberculosis. Nature of the series: Antitubercular activity against dormant stage of Mycobacterium tuberculosis H37Ra assessed as cell viability after 12 days by XTT reduction menadione assay. The settings on record: 288 h. It counts as functional.
A short description of series [13]: Antibacterial activity against active stage of Mycobacterium bovis BCG ATCC 35743 assessed as cell viability after 8 days by nitrate reductase assay. The settings on record: Mycobacterium tuberculosis variant bovis BCG, ATCC 35743, 192 h. It counts as functional, Mycobacterium bovis BCG str. ATCC 35743.
The nature of series [14]: Antibacterial activity against dormant stage of Mycobacterium bovis BCG ATCC 35743 assessed as cell viability after 12 days by nitrate reductase assay. It is filed as functional, Mycobacterium bovis BCG str. ATCC 35743. To be noted: Mycobacterium tuberculosis variant bovis BCG, ATCC 35743, 288 h.
Series [15] can be described thus: Cytotoxicity against human MCF7 cells incubated for 1 to 11 days by MTT assay. It is filed as cell-based.
Series [16] is described as follows: (§1) Cytotoxicity against human A549 cells incubated for 1 to 11 days by MTT assay. It is filed as cell-based. The settings on record: A549 cells.
In another series the test system is A549. The series is described as §1. It counts as cell-based. To be noted: a549.

Molecules are shown by their SMILES. In brackets after ≈: the same amount, converted by molar mass. Where only a bound is given, the exact number is not on record here.

Consider `CCCCCCc1cc2c(=O)n(CCN=[N+]=[N-])cnc2s1`, for which the selectivity ratio in series [1] came to 25; in series [2], 12; in series [3] it was 4; in series [4], 2; in series [5] it was 4; in series [6], 2. Further, the selectivity ratio is greater than 25 in series [7] and 12 in series [8]. Besides, the GI50 in series [9] was greater than 100 µg/mL; in series [10] it was 14.7 µg/mL (≈ 48.1 µM); in series [15], greater than 100 µg/mL; in series [16] it was 16.2 µg/mL (≈ 52.9 µM). The MIC90 stood at 8.42 µg/mL (≈ 27.6 µM) in series [11], 11.5 µg/mL (≈ 37.8 µM) in series [12], 4.08 µg/mL (≈ 13.4 µM) in [13] and 4.51 µg/mL (≈ 14.8 µM) in series [14]. Also, the GI90 with A549 was found to be 74.66 µg/mL (≈ 244 µM).
